The subject of this assay is Laminin 421/521. In words: Phage display library screening (Example 2), NEB laminin-binding peptides. Details: species or system human. The conditions noted are these: Laminin 421/521, not 211 and 411; combined unique sequence count, Python/R script analysis. As to the method: Phage display library screens were used to identify peptides that bind to target proteins (including specific laminin trimers) that are expressed in human nerves, as described in Table 3. These screens were also carried out to identify peptides that could bind selectively to nerves versus muscle. Such peptides could therefore be useful for systemic in-vivo labeling of nerves during fluorescence assisted surgery. Specifically, m 13 phage libraries expressing 7 or 12 random amino acid peptides, or a cyclic peptide CX7C, on the N-terminus of the minor coat protein pIII (New England Biolabs; NEB) were processed through multiple rounds of selection for binding to target proteins expressed in nerves, or to excised human nerves, nerve extracts, or muscle, as described further below.
For screening against the specified target proteins in Table 1, including LN211, LN411, LN421, and LN521, the phage library was processed by up to 4 binding and wash cycles. For selection, phage libraries were incubated for up to 24 hours at 4° C. in 96 well plates that had been coated with one of the target proteins. Plates were then washed with PBS and phage were eluted using 0.2M glycine pH 2.0. Phage supernatants where then neutralized with Tris pH 9.0 prior to plating on TGI bacteria and LB agar plates. Colonies were counted to determine titer followed by DNA preparation of pools of phage and NextGen sequencing. After rounds of selection, phage were pooled and amplified for iterative selection. Phage that were bound at each round were sequenced. NextGen sequencing of pools after 2, 3 and 4 rounds of selection was used to isolate candidate sequences that were analyzed further to identify those that specifically bound each unique target protein.
For all NEB sequence datasets, a python script was used to translate, trim, and filter the peptide sequences (see details above). A python script was used to group peptides from different assays according to laminin complex binding (laminin complex 211, 411, 421, or 521) and combine the unique sequence counts for each peptide. An R script was written to merge the peptide sequences from different data files and determine peptides that specifically bind one laminin complex and not the others, or that bind both laminin 421 and 521 but not 211 and 411.
Regarding “SVVGWAAPRTAQ (Laminin 421/521-binding peptide)”, the Count turned out to be 27.

Regarding “SWHFTGTPFMNR (Laminin 421/521-binding peptide)”, the Count was 28.

With “SWQMRSY (Laminin 421/521-binding peptide)”, the Count is on record as 48.

Take “SYDGTMLKQVRL (Laminin 421/521-binding peptide)”: the Count amounted to 36.

Consider “SYTATWSEMSRS (Laminin 421/521-binding peptide)”, for which the Count worked out at 28.

Regarding “TALSHRHEAMRW (Laminin 421/521-binding peptide)”, the Count was determined as 28.

For the substance “TAPRWTQ (Laminin 421/521-binding peptide)”, the Count is 30.

In the case of “TFAAAQAELIMV (Laminin 421/521-binding peptide)”, the Count is listed as 38.

“TFGSGRSMPIQY (Laminin 421/521-binding peptide)”: the Count stood at 34.

Take “TILKPAAQGFAD (Laminin 421/521-binding peptide)”: the Count worked out at 27.

Take “TKGIAPK (Laminin 421/521-binding peptide)”: the Count was found to be 28.

With “TLKAGTRANDGV (Laminin 421/521-binding peptide)”, the Count came to 32.

For the substance “TSAVSLR (Laminin 421/521-binding peptide)”, the Count is given as 27.

Regarding “TTLWLDRDEALK (Laminin 421/521-binding peptide)”, the Count came out at 27.

Consider “TTNGVPGHDRSP (Laminin 421/521-binding peptide)”, for which the Count turned out to be 46.

On to “TVARSTAQERSI (Laminin 421/521-binding peptide)”, for which the Count came to 28.

For “VIADQSKSAVAV (Laminin 421/521-binding peptide)”, the Count came out at 27.

In the case of “VPQIRIK (Laminin 421/521-binding peptide)”, the Count was 47.

As to “VPSYILR (Laminin 421/521-binding peptide)”, the Count came to 30.

As to “VPVFLDQARVMK (Laminin 421/521-binding peptide)”, the Count is reported as 53.

As for “VVPSWPSVHRPP (Laminin 421/521-binding peptide)”, the Count came out at 31.

“VYRNGGGLPLTA (Laminin 421/521-binding peptide)”: the Count worked out at 34.

As for “WAFKAPQ (Laminin 421/521-binding peptide)”, the Count is 61.

Take “WAYTDYM (Laminin 421/521-binding peptide)”: the Count came out at 35.

As to “WDLPTLRKTKQA (Laminin 421/521-binding peptide)”, the Count was 114.

Turning to “WEEHRVEILPDV (Laminin 421/521-binding peptide)”, the Count came out at 38.

In the case of “WGANTTGRTHGG (Laminin 421/521-binding peptide)”, the Count worked out at 40.

“WGLKLPH (Laminin 421/521-binding peptide)”: the Count worked out at 117.

Regarding “WGWNGANMSPRG (Laminin 421/521-binding peptide)”, the Count is 31.

“WNANYGTMTRHA (Laminin 421/521-binding peptide)”: the Count is on record as 92.

Consider “WPMMQTR (Laminin 421/521-binding peptide)”, for which the Count worked out at 29.

In the case of “WPVRNLL (Laminin 421/521-binding peptide)”, the Count is 67.

Consider “WQWRSTELGYRY (Laminin 421/521-binding peptide)”, for which the Count was 36.

As to “WRSPLTT (Laminin 421/521-binding peptide)”, the Count was 30.

“WSPANGWRHQTI (Laminin 421/521-binding peptide)”: the Count is reported as 36.

Turning to “WTKHNTPAHHLS (Laminin 421/521-binding peptide)”, the Count is recorded as 89.

For “WVAAERR (Laminin 421/521-binding peptide)”, the Count is 115.

On to “YHLGPNQKMRTS (Laminin 421/521-binding peptide)”, for which the Count is 48.

Values taken from patent publication US20240207421A1, “NERVE TARGETING PEPTIDES AND METHODS OF USE” (ALUME BIOSCIENCES, INC., priority 2020, published 2024).
